The nature of one data set: Chemical stability assay. Format: physicochemical. Conditions: 37 °C.
Data set [1] in a line: Log D7.4 shake flask assay. Format: physicochemical. Conditions: octanol/PBS, pH 7.4.
The test system of data set [2] is MCF7 (EGFR positive cancer cell line). Nature of the data set: LDH release cytotoxicity / cell viability assay in MCF7. Format: cell-based. Conditions: Homo sapiens. (In general: LDH in the medium is a marker of cell lysis.)
A short description of data set [3]: Caco-2 bidirectional permeability assay. Conditions: human, Caco-2, 10 µM, 37 °C.
The mark [4] stands for this setting: buffer pH 2.0, pH 2, Chemical Stability - Half-Life, pH 2.0, 5 µM.
Where [5] appears, read: buffer pH 10.0, pH 10, Chemical Stability - Half-Life, pH 10.0, 5 µM.

Each structure is given as a SMILES string.

By half-life is commonly meant the time needed for the level to fall by half in the phase considered. A high value points to slow loss. Regarding `CC(C)[N+](C)(CCOC(=O)C1c2ccccc2Oc2ccccc21)C(C)C` [Propantheline bromide], the results for the half-life at 5 µM in “Chemical stability assay” (setting [4]) and in the data set “Chemical stability assay” (setting [5]) were 82.9 ± 14.8 min and 8.3 ± 2.6 min, respectively.

The term solubility denotes the concentration that dissolves in the medium under given conditions. Read a high solubility as a readily soluble substance. Broadly, the logD is lipophilicity at a set pH, counting ionised and neutral species. Low readings indicate lower lipophilicity, high ones higher lipophilicity. On to `CCCSc1ccc2nc(NC(=O)OC)[nH]c2c1` [Albendazole, albendazole], for which the solubility at 24 h in “Thermodynamic solubility” (pH 4.5) is below 1 µg/mL. In “Thermodynamic solubility” (pH 7.4, PBS, room temperature, 24 h), the “Thermodynamic Solubility” value is 0.72 ± 0.2 µg/mL. For the same molecule, the logD at 4 h in data set [1] was 3.6 ± 0.1.

In general, IC50 refers to the midpoint of a concentration-inhibition curve. Read a low IC50 as greater potency. With `CC(C)(O)CC(=O)NCCn1ccc2ncnc(Nc3ccc(Oc4cccc(C(F)(F)F)c4)c(Cl)c3)c21` [TAK-285], the IC50 in data set [2] was found to be 15.5 ± 5.6 µM.

One may read the Papp as a coefficient for how fast a substance crosses the barrier. The low end stands for poor permeation, the high end for ready permeation. Take `CC(C)NCC(O)COc1cccc2ccccc12` (stereo not shown) [Propranolol, propranolol]: the Papp at 2 h, 10 µM came to 29 ± 1.2 ×10⁻⁶ cm/s in data set [3] (Caco-2, pH 7.4, Papp (Apical to Basal), apical to basal) and 21.1 ± 0.3 ×10⁻⁶ cm/s in data set [3] (Caco-2, pH 7.4, Papp (Basal to Apical), basal to apical).

In the case of `COc1ccc2[nH]c([S+]([O-])Cc3ncc(C)c(OC)c3C)nc2c1` (stereo not shown) [Omeprazole], the half-life at 5 µM in the data set “Chemical stability assay” (setting [4]) came to 10.2 ± 3.1 min; in “Chemical stability assay” (setting [5]), 55.3 ± 11.4 min.

For the origin of these results see PMC9077134 (OncoTargets and therapy, 2022).
